Assay results: patent US12264173B2 (GILEAD SCIENCES, INC., priority 2020, dated 2025)
Where two headings read alike, the source gives them in different places.

What was measured:
Type in all cases: cell-based
[1] = tested on: Dengue serotype 2 New Guinea C (NGC) strain; assay: DENV-2 Huh-7 EC50 (qPCR in Huh7 cells)
Method: Huh7 (Human hepatocarcinoma 7) cells were maintained in 10% FCS-containing DMEM complete media. On the day of the assay, cells were trypsinized (0.1% Trypsin-EDTA), washed and infected for 2 hours in serum-free DMEM with Dengue serotype 2 New Guinea C (NGC) strain at MOI=0.1 with gentle agitation at 37° C. After 2 hours, cells were washed with serum-free media and suspended in 10% FCS-containing DMEM (Gibco, supplemented with sodium pyruvate, NEAA, Penicillin-Streptomycin). 10^5 cells were plated in triplicate in 96-well plates with compounds dispensed at graded doses (Hewlett-Packard D300 Digital Dispenser). All wells were normalized to 0.25% DMSO. At 48 hours, cells were washed with 1×PBS and all supernatants removed. Total RNA was extracted using RNEasy 96 plates (Qiagen) and used to generate first-strand cDNA using XLT cDNA 5× Supermix (QuantaBio). cDNA was used as a template in a Taqman qPCR duplex reaction specific to DENV2 viral and GAPDH gene expression. EC50 values were determined using Prism Graphpad software, with normalization to a positive control and no compound negative control wells.

HCV Rep 1B = HCV Rep 1B EC50 (replicon luciferase)
Method: (§1) Compounds were serially diluted in ten steps of 1:3 dilutions in 384-well plates. All serial dilutions were performed in four replicates per compound within the same 384-well plate. […] To each well of a black polystyrene 384-well plate (Greiner Bio-one, Monroe, NC), 90 μL of cell culture medium (without Geneticin) containing 2000 suspended HCV replicon cells was added with a Biotek μFlow workstation. For compound transfer into cell culture plates, 0.4 μL of compound solution from the compound serial dilution plate was transferred to the cell culture plate on a Biomek FX workstation. The DMSO concentration in the final assay wells was 0.44%. The plates were incubated for 3 days at 37° C. with 5% CO2 and 85% humidity. The HCV replicon assay was a multiplex assay, able to assess both cytotoxicity and antireplicon activity from the same well. The CC50 assay was performed first. The media in the 384-well cell culture plate was aspirated, and the wells were washed four times with 100 μL of PBS each, using a Biotek ELX405 plate washer. A volume of 50 μL of a solution containing 400 nM calcein AM (Anaspec, Fremont, CA) in 1×PBS was added to each well of the plate with a Biotek μFlow workstation. The plate was incubated for 30 min at room temperature before the fluorescence signal (excitation 490 nm, emission 520 nm) was measured with a Perkin-Elmer Envision plate reader. The EC50 assay was performed in the same wells as the CC50 assay. The calcein-PBS solution in the 384-well cell culture plate was aspirated with a Biotek ELX405 plate washer. A volume of 20 μL of Dual-Glo luciferase buffer (Promega, Madison, WI) was added to each well of the plate with a Biotek μFlow Workstation. The plate was incubated for 10 min at room temperature. A volume of 20 μL of a solution containing a 1:100 mixture of Dual-Glo Stop & Glo substrate (Promega, Madison, WI) and Dual-Glo Stop & Glo buffer (Promega, Madison, WI) was added to each well of the plate with a Biotek μFlow Workstation. The plate was then incubated at room temperature for 10 min before the luminescence signal was measured with a Perkin-Elmer Envision Plate Reader.

HCV Rep 2A = HCV Rep 2A EC50 (replicon luciferase)
Method: as §1

[2] = tested on: hMPV strain CAN97-83 (gr. A2); assay: hMPV A2 EC50 in LLC-MK2 cells; conditions: read-out: hMPVA2 LLC-MK2 EC50
Method: (§2) LLC-MK2 cells were seeded in 24-well plates at 90% confluence in MEM+10% FBS. Plates were washed with PBS and 500 μL of hMPV (strains CAN99-81 (gr. A1), CAN97-83 (gr. A2), CAN97-82 (B1) or CAN98-75 (gr. B2), containing 40 PFU/mL with the different dilutions of the 4 compounds were added on the cells for 1 h 30 min at 37° C., 5% CO2. After the adsorption period, the medium was removed and cells were washed with PBS. An overlay of Opti-MEM 2×+methycellulose 1.6% (1:1) containing the same concentrations of compounds as in the adsorption period was added to the wells. A positive control consisting of ribavirin was also tested with concentrations ranging from 1 μM to 100 μM. The plates were incubated at 37° C., 5% CO2 for 3-5 days. After the incubation period, the cells were fixed with 7% formalin for 1 h at room temperature. hMPV titers were determined using a Mab specific for the F protein (clone hMPV24, ABD Serotec, Inc.) diluted 1/10 000 and a second anti-mouse IgG HRP antibody (GeneScriptCorp) diluted 1/2500. Finally, KPL True Blue was used to reveal infected cells.

[3] = tested on: hMPV strain CAN98-75 (gr. B2); assay: hMPV B2 EC50 in LLC-MK2 cells; conditions: read-out: hMPVB2 LLC-MK2 EC50
Method: as §2

[4] = tested on: Dengue 2, New Guinea strain (NGC); assay: DENV moDC EC50 (qPCR in human monocyte-derived dendritic cells); conditions: Table 3, human moDCs, 48 hours
Method: Human monocyte-derived dendritic cells (moDCs) were derived from CD14+ monocytes (AllCells) cultured in Human Mo-DC Differentiation medium containing GM-CSF and IL-4 (Miltenyi Biotec). On day 7, moDCs were harvested by mechanical disruption, washed and suspended in serum-free RPMI. moDCs were infected with Vero-derived Dengue 2, New Guinea strain (NGC) at a MOI=0.1 for two hours in serum-free RPMI with gentle agitation at 37° C. Cells were washed and resuspended in 10% serum-containing RPMI (Gibco, supplemented with sodium pyruvate, NEAA, Penicillin-Streptomycin). […] were plated in triplicate in 96-well plates with compounds dispensed at graded doses (Hewlett-Packard D300 Digital Dispenser). All wells were normalized to 0.25% DMSO. At 48 hours, cells were washed with 1×PBS and all supernatants removed. Total RNA was extracted using RNEasy 96 plates (Qiagen) and used to generate first-strand cDNA using XLT cDNA 5× Supermix (QuantaBio). cDNA was used as a template in a Taqman qPCR duplex reaction specific to DENV2 viral and GAPDH gene expression. EC50 values were determined using Prism Graphpad software, with normalization to a positive control and no compound negative control wells.

[5] = tested on: hMPV strain CAN97-82 (B1); assay: hMPV B1 EC50 in LLC-MK2 cells; conditions: read-out: hMPVB1 LLC-MK2 EC50
Method: as §2

[6] = tested on: hMPV strain CAN99-81 (gr. A1); assay: hMPV A1 EC50 in LLC-MK2 cells; conditions: read-out: hMPVA1 LLC-MK2 EC50
Method: as §2

[7] = Dengue virus, DENV2, Huh-7, Table 3, Huh7 cells, 48 hours, read-out: DENV-2 Huh7 EC50
[8] = Dengue virus, Huh-7, read-out: DENV Huh7 EC50
[9] = Hepatitis C virus, 72 h, Table 4, replicon cells, 3 days, read-out: HCV Rep 1B EC50
[10] = Hepatitis C virus, 72 h, Table 4, replicon cells, 3 days, read-out: HCV Rep 2A EC50
[11] = Table 3, Huh7 cells, 48 hours, read-out: DENV-2 Huh7 EC50
[12] = Table 4, replicon cells, 3 days, read-out: HCV Rep 1B EC50
[13] = Table 4, replicon cells, 3 days, read-out: HCV Rep 2A EC50

Structure (SMILES)	EC50 [1, 7]	EC50 (HCV Rep 1B; [9])	EC50 (HCV Rep 2A; [10])	EC50 ([4]; Dengue virus, Dendritic cell)	other results
COC(=O)[C@H](C)N[P@](=O)(OC[C@@]1(C#N)O[C@@H](c2ccc3c(N)ncnn23)[C@H](OC(=O)C(C)C)[C@@H]1OC(=O)C(C)C)Oc1ccccc1 (single isomer, unassigned) [Example 140]	1220 nM	369 nM	542 nM	90 nM	EC50 [1, 8]: 1210 nM; EC50 (HCV Rep 1B; Hepatitis C virus, read-out: HCV Rep1B EC50): 368 nM; EC50 (HCV Rep 2A; Hepatitis C virus, read-out: HCV Rep2A EC50): 542 nM; EC50 [2]: 190 nM; EC50 [3]: 230 nM; EC50 [5]: 210 nM; EC50 [6]: 160 nM
CCC(=O)O[C@H]1[C@H](c2ccc3c(N)ncnn23)O[C@](C#N)(CO[P@@](=O)(N[C@@H](C)C(=O)OC)Oc2ccccc2)[C@H]1OC(=O)CC (single isomer, unassigned) [Example 143]	3130 nM			164 nM	
CCOC(=O)[C@H](C)N[P@](=O)(OC[C@@]1(C#N)O[C@@H](c2ccc3c(N)ncnn23)[C@H](OC(=O)C(C)C)[C@@H]1OC(=O)C(C)C)Oc1ccccc1 (single isomer, unassigned) [Example 144]	1180 nM	442 nM	1270 nM	31 nM	EC50 [1, 8]: 1280 nM
CC(C)C(=O)O[C@H]1[C@H](c2ccc3c(N)ncnn23)O[C@](C#N)(COP(=O)(N[C@@H](C)C(=O)OCC2CCOCC2)Oc2ccccc2)[C@H]1OC(=O)C(C)C (single isomer, unassigned) [Example 183]					EC50 [1, 11]: 1110 nM; EC50 [4]: 142 nM
CC(C)C(=O)O[C@H]1[C@H](c2ccc3c(N)ncnn23)O[C@](C#N)(COP(=O)(N[C@@H](C)C(=O)OC2COC2)Oc2ccccc2)[C@H]1OC(=O)C(C)C (single isomer, unassigned) [Example 186]					EC50 [1, 11]: 1730 nM; EC50 (HCV Rep 1B; [12]): 306 nM; EC50 (HCV Rep 2A; [13]): 836 nM
CC(C)C(=O)O[C@H]1[C@H](c2ccc3c(N)ncnn23)O[C@](C#N)(COP(=O)(N[C@@H](C)C(=O)OCC2COC2)Oc2ccccc2)[C@H]1OC(=O)C(C)C (single isomer, unassigned) [Example 201]					EC50 [1, 11]: 317 nM; EC50 [4]: 57 nM
CCC(CC)COC(=O)[C@H](C)N[P@](=O)(OC[C@@]1(C#N)O[C@@H](c2ccc3c(N)ncnn23)C(OC(=O)C(C)C)[C@@H]1OC(=O)C(C)C)Oc1ccccc1 (stereo in doubt) [Example 86, (2R,3S,4R,5S)-5-(4-aminopyrrolo[2,1-f][1,2,4]triazin-7-yl)-2-cyano-2-((((S)-(((S)-1-(2-ethylbutoxy)-1-oxopropan-2-yl)amino)(phenoxy)phosphoryl)oxy)methyl) tetrahydrofuran-3,4-diyl bis(2-methylpropanoate)]	1410 nM	929 nM	1480 nM	239 nM	
CC(C)C(=O)O[C@H]1[C@H](c2ccc3c(N)ncnn23)O[C@](C#N)(CO[P@@](=O)(N[C@@H](C)C(=O)OC2CCCCC2)Oc2ccccc2)[C@H]1OC(=O)C(C)C [Example 77, (2R,3S,4S,5S)-5-(4-aminopyrrolo[2,1-f][1,2,4]triazin-7-yl)-2-cyano-2-((((S)-(((S)-1-(cyclohexyloxy)-1-oxopropan-2-yl)amino)(phenoxy)phosphoryl)oxy)methyl) tetrahydrofuran-3,4-diyl bis(2-methylpropanoate)]	1490 nM	608 nM	936 nM	185 nM	
CCC(=O)O[C@H]1[C@H](c2ccc3c(N)ncnn23)O[C@](C#N)(CO[P@@](=O)(N[C@@H](C)C(=O)OC2CCCCC2)Oc2ccccc2)[C@H]1OC(=O)CC [Example 82, (2R,3S,4S,5S)-5-(4-aminopyrrolo[2,1-f][1,2,4]triazin-7-yl)-2-cyano-2-((((S)-(((S)-1-(cyclohexyloxy)-1-oxopropan-2-yl)amino)(phenoxy)phosphoryl)oxy)methyl) tetrahydrofuran-3,4-diyl dipropionate]	3980 nM	359 nM	813 nM	786 nM	
CCC(=O)O[C@H]1[C@H](c2ccc3c(N)ncnn23)O[C@](C#N)(CO[P@@](=O)(N[C@@H](C)C(=O)OC(C)C)Oc2ccccc2)[C@H]1OC(=O)CC [Example 90, (2R,3S,4S,5S)-5-(4-Aminopyrrolo[2,1-f][1,2,4]triazin-7-yl)-2-cyano-2-((((S)-(((S)-1-isopropoxy-1-oxopropan-2-yl)amino)(phenoxy)phosphoryl)oxy)methyl) tetrahydrofuran-3,4-diyl dipropionate]	2160 nM	579 nM	1140 nM	677 nM	
CCC(=O)O[C@H]1[C@H](c2ccc3c(N)ncnn23)O[C@](C#N)(CO[P@@](=O)(N[C@@H](C)C(=O)OCC2CC2)Oc2ccccc2)[C@H]1OC(=O)CC [Example 99]					EC50 (HCV Rep 1B; [12]): 313 nM; EC50 (HCV Rep 2A; [13]): 599 nM
COC(=O)[C@H](C)N[P@](=O)(OC[C@@]1(C#N)O[C@@H](c2ccc3c(=N)n(COP(=O)(O)O)cnn23)[C@H](OC(=O)C(C)C)[C@@H]1OC(=O)C(C)C)Oc1ccccc1 [Example 259, (2R,3S,4S,5S)-2-cyano-5-(4-imino-3-((phosphonooxy)methyl)-3,4-dihydropyrrolo[2,1-f][1,2,4]triazin-7-yl)-2-((((S)-(((S)-1-methoxy-1-oxopropan-2-yl)amino)(phenoxy)phosphoryl)oxy)methyl)tetrahydrofuran-3,4-diyl bis(2-methylpropanoate)]	1860 nM	1120 nM	2080 nM		
